Molecules are shown by their SMILES. Structures can show the parent of a compound that is named as a salt.

T1 sequence (Q14534 whole entry): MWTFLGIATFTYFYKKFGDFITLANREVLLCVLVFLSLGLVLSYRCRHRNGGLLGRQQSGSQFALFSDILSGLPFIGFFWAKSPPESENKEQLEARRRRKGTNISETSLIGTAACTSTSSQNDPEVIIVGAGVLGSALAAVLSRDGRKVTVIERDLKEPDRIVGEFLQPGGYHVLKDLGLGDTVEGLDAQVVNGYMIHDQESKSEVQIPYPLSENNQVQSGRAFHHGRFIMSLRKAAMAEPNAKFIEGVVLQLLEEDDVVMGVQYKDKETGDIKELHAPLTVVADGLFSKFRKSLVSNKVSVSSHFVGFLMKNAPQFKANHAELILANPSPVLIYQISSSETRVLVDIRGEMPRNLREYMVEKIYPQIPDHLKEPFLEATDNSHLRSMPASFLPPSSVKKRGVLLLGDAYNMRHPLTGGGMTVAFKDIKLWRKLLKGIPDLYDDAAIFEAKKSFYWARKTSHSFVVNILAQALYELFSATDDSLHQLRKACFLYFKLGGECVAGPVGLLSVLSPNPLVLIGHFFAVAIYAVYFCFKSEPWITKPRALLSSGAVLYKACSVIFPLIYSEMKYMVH

The assay addresses T1, Human squalene epoxidase (Homo sapiens, UniProt Q14534).
T1 construct: endogenous in cells; host or cells: Hep-G2 (human hepatoma) cells, microsomes solubilized with Triton X-100
Description: Human squalene epoxidase inhibition action. Particulars: solubilized squalene epoxidase fraction from human hepatoma (Hep-G2) cells; 8 μM 3H-squalene; 37° C., 60 minutes; pH 7.5; read-out: 50% inhibitory concentration (IC50). It counts as biochemical. The method, then: Squalene epoxidase inhibition action (1) Preparation of squalene epoxidase Human squalene epoxidase is prepared based on the method disclosed in J. Biol. Chem. 245, 1670 (1970) and ibid. 250, 1572 (1975). Namely, human hepatoma (Hep-G2) cells are cultured at 37° C. under 5% carbon dioxide-mixed air. After completion of the culture the cells are scraped and recovered by centrifugation. The cells are suspended (1×10^8 cells/ml) in a 0.1M Tris-HCl buffer (pH 7.5), the suspension is homogenized and centrifuged at 9,750×g for 10 minutes, and the sediment is washed with a 0.1M Tris-HCl buffer (pH 7.5) and centrifuged at 105,000×g for 1 hour. […] After this solubilization treatment, the solution is diluted with 1 mM EDTA and 1 mM dithiothreitol so that the Triton X-100 concentration becomes 0.125%, and then centrifuged at 105,000×g for 1 hour. The resulting supernatant is used in the later test as a squalene epoxidase fraction. (2) Method for measurement of squalene epoxidase activity Measurement of human squalene epoxidase activity is carried out based on the method disclosed in J. Biol. Chem. 245, 1670 (1970). Namely, […] of a dimethylsulfoxide solution of a test drug is added to a solution consisting of 0.2 ml of the squalene epoxidase fraction prepared in (1) [Protein amount 0.4 mg, 0.1% Triton X-100, […] buffer (pH 7.5)], 100 μM FAD, 1 mM NADPH, 1 mM EDTA and 8 μM ^3 H-squalene-Tween 80 suspension to make the total volume 0.3 ml, and the mixture is subjected to shaking reaction at 37° C. for 60 minutes. 0.3 ml of a 10% potassium hydroxide-methanol solution is added to stop the reaction, and the mixture is heated at 75° C. for 1 hour. Then, after extraction of the nonsaponified substances, the extract is concentrated to dryness in a stream of nitrogen. […] The position of the formed ^3 H-squalene-2,3-epoxide on TLC is ascertained using as a marker ergosterol acetate and the ^3 H-squalene-2,3-epoxidepart of TLC is cut out. The TLC piece is immersed in a toluene series scintillator and measurement is carried out using a liquid scintillation counter. By this, 50% inhibitory concentrations (IC50 values) of compounds of the invention on squalene epoxidase are determined, and the results are shown in the following table.
Take `CCN(C/C=C/C#CC(C)(C)OC)Cc1cccc(COC/C=C/c2ccsc2)c1` [Example 7, (E,E)-N-ethyl-N-7(6-methoxy-6-methyl-2-hepten-4-ynyl)-3-3-(3-thienyl)-2-propenyloxymethyl]benzylamine hydrochloride]: the IC50 came to 0.3 nM.

With `CCN(C/C=C/C#CC(C)(C)OC)Cc1ccc(COC/C=C/c2ccsc2)o1` [Example 30, (E,E)-N-ethyl-N-(6-methoxy-6-methyl-2-hepten-4-ynyl)-5-[3-(3-thienyl)-2-propenyloxymethyl]-2-furylmethylamine hydrochloride], the IC50 stood at 0.8 nM.

For `CCN(C/C=C/C#CC(C)(C)CC)CCOCCOc1cccc(-c2ccsc2)c1` [Example 35, (E)-N-ethyl-N-(6,6-dimethyl-2-octen-4-ynyl)-2-[2-[3-(3-thienyl)phenoxy]ethoxy]ethylamine hydrochloride], the IC50 turned out to be 0.4 nM.

Turning to `CN(C/C=C/C#CC(C)(C)C)Cc1ccc(COC/C=C/c2ccsc2)o1` [Example 38, (E,E)-N-methyl-N-(6,6-dimethyl-2-hepten-4-ynyl)-5-[3-(3-thienyl)-2-propenyloxymethyl]-2-furylmethylamine], the IC50 was found to be 0.2 nM.

With `CCN(CC#C/C=C/C(C)(C)C)Cc1ccc(COC/C=C/c2ccsc2)o1` [Example 46, (E,E)-N-ethyl-N-(6,6-dimethyl-4-hepten-2-ynyl)-5-[3-(3-thienyl)-2-propenyloxymethyl]-2-furylmethylamine], the IC50 came out at 0.4 nM.

For `CCN(CC#CC#CC(C)(C)OC)Cc1ccc(/C=C/COCc2ccsc2)o1` [Example 48, (E)-N-ethyl-N-(6-methoxy-6-methyl-2,4-heptadiynyl)-5-[3-(3-thienylmethoxy)-1-propenyl]-2-furylmethylamine], the IC50 was 0.5 nM.

For the origin of these results see patent publication US5439932A, “Substituted amine derivatives having anti-hyperlipemia activity” (Banyu Pharmaceutical Co., Ltd., priority 1990, dated 1995).
